How the values were obtained:
[1] = system: mouse spleen cells; experiment: Blastogenic activity on mouse spleen cells ([3H]-thymidine uptake, Stimulation Index); assay type: cell-based
Source text: In the preparation of immune cells, specific pathogen free (SPF) BALB/c mice (Japan SLC, Shizuoka, Japan) were used for examination. Five-week old male mice were purchased, and allowed to freely consume distilled water and MR breeder (Nihon Nosan Kogyo (Nosan Co.)), which is experimental feed for mice and rats. Six- to ten-week-old mice were used for the experiments.
BALB/c mice were anesthetized with ether, and then sacrificed by exsanguination. Their spleens were excised and washed with phosphate buffer (PBS-4×S.P; ph 7.3) containing streptomycin and penicillin ([…] and 400 U/ml, respectively) to remove adipose tissue and such. The spleens were well dispersed in gauze, and spleen cells were filtered through the gauze into PBS to prepare a cell suspension. This cell suspension was centrifuged (at 300×g for five minutes at 4° C.). After discarding the supernatant, the cells were re-suspended in RPMI-1640 medium (SIGMA). The suspension was filtered through a steel mesh to remove aggregated cells, and centrifuged again (five minutes at 300×g and 4° C.). After discarding the supernatant, the cells were finally re-suspended in RPMI-1640 containing 2% fetal calf serum (FCS: Biocell Lab., Inc., CA, US). The viable cell count was determined using a trypan blue staining method, and this suspension was used as the spleen cell suspension in the experiments.
The cell suspension was transferred into each well of a 96-well microplate (SUMITOMO BAKELITE CO., LTD. Tokyo, Japan) to give 2×10^5 cells per well. The dextran and five types of phosphorylated dextrans (molecular weights of about 10,000, 40,000, 160,000, 510,000, and 2,000,000) prepared in Example 1 were respectively added to the wells to a concentration of 100 μg/ml. The cells were then cultured in RPMI-1640 (2% FCS) under 5% CO2 at 37° C. for 48 hours. As positive control samples, lipopolysaccharide (LPS: B-cell mitogen, E. coli 0111: B4, SIGMA) or concanavalin A (ConA: T-cell mitogen, SIGMA) were added at a final concentration of 20 μg/ml and 2 μg/ml, respectively. […] TdR incorporated into the lymphocytes was determined using a liquid scintillation counter (LS1801; Beckman Coulter, Tokyo).
The blastogenic activities on lymphocytes were evaluated by calculating Stimulation Indexes (S.I.) from the [^3H] […]
The blastogenic activities of phosphorylated dextrans on mouse spleen cells were measured as described in Example 5, except that phosphorylated dextrans were added at concentrations of 100 ng/ml, 1 μg/ml, 10 μg/ml, 100 μg/ml, or 200 μg/ml, the cells were incubated in RPMI-1640 medium (2% FCS) under 5% CO2 at 37° C. for 48 hours, and methyl-[^3H]-thymidine uptakes were measured. Blastogenic activity was estimated by calculating S.I. values from the radioactivity, compared with a control. […]

[2] = system: B cells; experiment: Blastogenic activity on separated B cells (MACS CD45R adsorbed fraction); assay type: cell-based, mouse; conditions: B cell fraction, 48 hours, FIG. 6
Method: (§1) The mouse spleen cell suspension prepared in Example 4 was washed by centrifugation (at 2,500 rpm for five minutes at 4° C.) with a buffer for cell separation (0.5% BSA, 2 mM EDTA/-PBS). 3×10^7 cells were incubated at 4° C. for 15 minutes with 50 μl of a 20-times diluted biotinylated anti-mouse CD45R antibody (CLTAG Lab, Burlingame, Calif.). The cells were washed by centrifugation with the cell separation buffer (five minutes at 2,500 rpm and 4° C.), and the supernatant was then discarded. 30 μl of ten-fold diluted streptavidin microbeads (Miltenyi Biotec GmbH, Germany) was added to the cells, and the mixture was incubated at 4° C. for 15 minutes. The cells were washed by centrifugation with the cell separation buffer (five minutes at 2,500 rpm and 4° C.), re-suspended in the same buffer, and the suspension was then filtered through a nylon mesh to remove aggregated cells. […]
(§2) The cells thus obtained were collected by centrifugation and re-suspended in RPMI-1640 containing 10% FCS. The blastogenic activity was then determined using the method described above, except that the stimulation by phosphorylated NPS was carried out at a concentration of 100 μg/ml, and the cells were incubated for 48 hours.

[3] = system: T cells; experiment: Blastogenic activity on separated T cells (MACS flow-through fraction); assay type: cell-based, mouse; conditions: T cell fraction, 48 hours, FIG. 6
Method: as §1, §2

Substance	blastogenic activity, S.I. (positive control) ([1]; LPS 20 μg/ml, 48 hours, FIG. 3)	blastogenic activity, S.I. (positive control) ([1]; LPS, FIG. 4 experiment)	activation of B cells (positive control) [2]	blastogenic activity, S.I. (positive control) ([1]; ConA 2 μg/ml, 48 hours, FIG. 3)	blastogenic activity, S.I. (positive control) ([1]; ConA, FIG. 4 experiment)	activation of T cells (positive control) [3]
Lipopolysaccharide	89.3	79.8	specifically activated			
concanavalin A				189.4	247.8	specifically activated
